For one assay, the target named is T1, human MT1 receptor (Homo sapiens, UniProt P48039).
T1 construct: expressed in transfected cells
Kind of assay: Activation of human MT1 receptor in receptor-expressing cells, intracellular Ca2+ by FLIPR. It counts as cell-based. The note with it: for EC50: HEK293EBNA1 cells stably expressing human MT1 and Gq/i chimeric G protein, Ca2+ FLIPR; for Emax: maximum reaction by ramelteon taken as 100%.

The target of another assay is T2, human MT2 receptor (Homo sapiens, UniProt P49286).
T2 construct: expressed in transfected cells
T2 sequence (P49286 1-362): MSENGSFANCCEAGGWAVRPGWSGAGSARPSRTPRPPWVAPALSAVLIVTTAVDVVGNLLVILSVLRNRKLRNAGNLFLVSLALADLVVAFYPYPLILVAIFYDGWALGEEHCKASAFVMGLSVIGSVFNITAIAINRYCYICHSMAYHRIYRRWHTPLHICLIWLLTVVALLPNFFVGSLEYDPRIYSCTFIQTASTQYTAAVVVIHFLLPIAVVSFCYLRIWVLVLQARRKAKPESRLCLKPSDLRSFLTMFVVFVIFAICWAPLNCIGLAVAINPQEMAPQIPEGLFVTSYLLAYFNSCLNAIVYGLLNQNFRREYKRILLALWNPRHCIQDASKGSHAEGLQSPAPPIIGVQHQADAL
The experiment in a line: Activation of human MT2 receptor in receptor-expressing cells, intracellular Ca2+ by FLIPR. It counts as cell-based. The note with it: for EC50: HEK293 cells stably expressing human MT2 and Gq/i chimeric G protein, Ca2+ FLIPR; for Emax: maximum reaction by ramelteon taken as 100%.

T1 sequence (P48039 whole entry): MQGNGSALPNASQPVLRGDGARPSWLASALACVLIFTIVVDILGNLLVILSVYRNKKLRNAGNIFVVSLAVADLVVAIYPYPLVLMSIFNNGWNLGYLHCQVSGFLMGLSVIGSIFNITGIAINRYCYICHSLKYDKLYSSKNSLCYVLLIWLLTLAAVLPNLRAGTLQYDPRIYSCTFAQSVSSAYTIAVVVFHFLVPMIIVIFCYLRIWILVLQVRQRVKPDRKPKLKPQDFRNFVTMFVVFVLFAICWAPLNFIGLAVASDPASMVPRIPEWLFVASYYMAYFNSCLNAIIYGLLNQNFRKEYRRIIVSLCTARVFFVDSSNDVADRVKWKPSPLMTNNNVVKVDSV

For the compound `CC(=O)NC[C@H](C)c1c[nH]c2cc(F)c(OCCn3ccc(C)n3)cc12` [Example 39], the EC50 – broadly, the concentration needed to bring the measured effect to its halfway point – amounted to 7.2 nM on human MT1 receptor and 51 nM at human MT2 receptor. Besides, the Emax – broadly, the size of the effect at its maximum, as opposed to the concentration needed – on human MT1 receptor is 104%; on human MT2 receptor, 49%.

For the compound `CNC(=O)NCCc1c[nH]c2ccc(OCCc3nc(C)sc3C)cc12` [Example 21], at human MT1 receptor, the EC50 was 7 nM and the Emax was 103%. On human MT2 receptor, the concentration for a half-maximal effect (EC50) amounted to 44 nM and the Emax stood at 59%.

At human MT1 receptor, `COc1cccc(OCCOc2ccc3[nH]cc(CCNC(C)=O)c3c2)n1` [Example 54] registered a half-maximal effective concentration (EC50) of 0.77 nM and a maximum response (Emax) of 111%. On human MT2 receptor, this compound came in with an EC50 of 2.6 nM and an Emax of 109%.

On human MT1 receptor, `CNC(=O)NCCc1c(C)[nH]c2cc(F)c(OCCOc3ccn(C)n3)cc12` [Example 47] showed an EC50 of 9.8 nM and an Emax of 124%. On human MT2 receptor, this compound displayed an EC50 of 41 nM and an Emax of 145%.

`CC(=O)NCCc1c(C)[nH]c2ccc(OCCn3ccc(C)n3)cc12` [Example 29]: at human MT1 receptor, the response was half-maximal at 10 nM (EC50) and the Emax was 100%. Also, on human MT2 receptor, the concentration giving a half-maximal response (EC50) is 24 nM and the Emax stood at 112%.

For the compound `CNC(=O)NCCc1c[nH]c2ccc(OCCOc3cncc(Br)c3)cc12` [Example 50], the EC50 on human MT1 receptor was found to be 8.5 nM; on human MT2 receptor, 6.4 nM. The results for the Emax on human MT1 receptor and at human MT2 receptor were 89% and 111%, respectively.

`CC(=O)NCCc1c[nH]c2ccc(OCCOc3ccnc(Cl)c3)cc12` [Example 51]: on human MT1 receptor, the half-maximal effective concentration (EC50) stood at 5.3 nM and the Emax turned out to be 95%. In addition, on human MT2 receptor, the EC50 worked out at 4.7 nM and the maximum response (Emax) stood at 108%.

Turning to `CC(=O)NCCc1c[nH]c2ccc(OCCOc3ccon3)cc12` [Example 63], on human MT1 receptor, the EC50 was 9.7 nM and the Emax was 90%. Moreover, at human MT2 receptor, the EC50 amounted to 9 nM and the Emax worked out at 105%.

On human MT1 receptor, `CCOC(=O)NCCOc1ccc2[nH]c(C)c(CCNC(C)=O)c2c1` [Example 12] gave a 50% effective concentration (EC50) of 7.7 nM and an Emax of 96%. At human MT2 receptor, this compound registered an EC50 of 18 nM and an Emax of 93%.

As for `CC(=O)NCCc1c(C)[nH]c2cc(F)c(OCCn3ccc(C)n3)cc12` [Example 22], on human MT1 receptor, the EC50 was determined as 7.3 nM and the maximum response (Emax) came out at 105%. At human MT2 receptor, this compound showed an EC50 of 8.7 nM and a maximum response (Emax) of 95%.

At human MT1 receptor, `CC(=O)NCCc1c[nH]c2ccc(OCCOc3cccc(C4CC4)n3)cc12` [Example 60] returned an EC50 of 7.2 nM and an Emax of 94%. On human MT2 receptor, this compound returned an EC50 of 9.2 nM and an Emax of 104%.

At human MT1 receptor, `CNC(=O)NCCc1c(C)[nH]c2ccc(OCCOc3cnc(OC)c(F)c3)cc12` [Example 48] registered an EC50 of 8.4 nM and an Emax of 92%. On human MT2 receptor, this compound displayed an EC50 of 56 nM and an Emax of 106%.

At human MT1 receptor, `CC(=O)NCCc1c[nH]c2ccc(OCCOc3cnccn3)cc12` [Example 3, N-(2-{5-[2-(pyrazin-2-yloxy)ethoxy]-1H-indol-3-yl}ethyl)acetamide] registered an EC50 of 9.9 nM and an Emax of 94%. On human MT2 receptor, this compound had an EC50 of 51 nM and an Emax of 127%.

As to `CNC(=O)NCCc1c[nH]c2ccc(OCCOc3cccc(C)n3)cc12` [Example 58], at human MT1 receptor, a half-maximal effect (EC50) was put at 1.2 nM and the Emax is 99%. On human MT2 receptor, this compound registered an EC50 of 3.4 nM and an Emax of 99%.

Turning to `Cn1ccc(OCCOc2ccc3[nH]cc(CCNC(=O)C(F)F)c3c2)n1` [Example 42], the EC50 at human MT1 receptor is 7.9 nM; at human MT2 receptor, 12 nM. In addition, the Emax on human MT1 receptor was found to be 97%; on human MT2 receptor, 103%.

For the compound `CCC(=O)NCCc1c[nH]c2cc(F)c(OCCOc3ccc(OC)nc3)cc12` [Example 46], at human MT1 receptor, the EC50 was found to be 3.4 nM and the Emax is 78%. On human MT2 receptor, the EC50 worked out at 6.3 nM and the Emax turned out to be 76%.
